# Test results as given in patent EP4711355A1, “CRYSTAL FORM OF LIPOPROTEIN COMPOUND AND PREPARATION METHOD THEREFOR” (Jiangsu Hengrui Pharmaceuticals Co., Ltd., priority 2023, dated 2024).
# Structures can show the parent of a compound that is named as a salt.
# Key:
# [1] = Long-term accelerated stability test (Test Example 4), sealed in aluminum foil bag (nitrogen-filled); type: physicochemical
# [2] = Long-term accelerated stability test (Test Example 3), sealed in aluminum foil bags; type: physicochemical; settings: for physicochemical stability: 25°C/60%RH and 40°C/75%RH for 6 months
# [3] = DVS hygroscopicity test (dynamic moisture sorption); type: physicochemical; settings: at 80% RH
# Description: DVS stands for dynamic moisture sorption: using the Surface Measurement Systems instrument, humidity started at 50% and the humidity range investigated was 0%-95% with a step of 10%. The judgment standard is that the mass change of each gradient dM/dT is ≤ 0.002%, TMAX is 360 min, and there are two cycles.
# [4] = In vivo pharmacokinetic study in beagle dogs; settings: male, dog, plasma, po, gavage, 10 mg/kg
# Description: With beagle dogs as test animals, the drug concentration in the plasma of beagle dogs at different time points after oral administration of the compound of the present disclosure was determined by using LC/MS/MS. The pharmacokinetic behavior of the compound of the present disclosure in beagle dogs was studied to evaluate its pharmacokinetic characteristics.
# Experimental animals: 2 healthy male beagle dogs aged 8 to 36 months per group
# Drug preparation: A certain amount of drug was weighed and prepared into a 2 mg/mL colorless clear solution with normal saline.
# Administration: Beagle dogs were fasted overnight and administered with the drug by gavage. The dosage of reference 1 and the compound of Example 6 was both 10 mg/kg.
# Procedure: Beagle dogs were administered by gavage with the compound of the present disclosure. Approximately 0.6 mL of blood was collected by peripheral venipuncture at 0.25, 0.5, 1, 2, 4, 6, 8, and 24 h after administration. The blood was placed in a tube containing EDTA-K2 and centrifuged at 2000 rpm for 10 min at approximately 4°C to separate the plasma, which was then stored at -75°C.
# Determination of the content of the test compound in beagle dog plasma at different blood collection time points: 33 µL of beagle dog plasma (30 µL plasma and 3 µL blank) collected at each time point after administration was added to 18 µL of 6% perchloric acid solution, vortexed for 30 s, and centrifuged at 3900 rpm at 4°C for 15 min. Then, 200 µL of alkaline (pH 10-11 as adjusted with ammonia water) acetonitrile solution containing internal standard dexamethasone was added to precipitate the protein. The mixture was vortexed for 30 s and centrifuged at 3900 rpm at 4°C for 15 min. The supernatant of the plasma sample was taken, diluted 3-fold with water, and 8 µL was taken for LC/MS/MS analysis.
# After the blood drug concentration was determined by LC/MS/MS analysis, the pharmacokinetic parameters were calculated using WinNonlin 6.1 software and the non-compartmental model method. Table 1 Pharmacokinetic parameters of the compounds of the present disclosure in beagle dogs
compound,measurement,setting,value
"O=C(O)[C@@H](Cc1cccc(CN(CCOc2cccc(C[C@H](C(=O)O)[C@H]3CCNC3)c2)Cc2cccc(C[C@H](C(=O)O)[C@H]3CCNC3)c2)c1)[C@H]1CCNC1 [free crystal form C, (2S)-3-(3-{[(2-{3-[(2S)-2-carboxyl-2-[(3R)-pyrrolidin-3-yl]ethyl]phenoxy}ethyl)({3-[(2S)-2-carboxyl-2-[(3R)-pyrrolidin-3-yl]ethyl]phenyl}methyl)amino]methyl}phenyl)-2-[(3R)-pyrrolidin-3-yl]propionic acid]",Crystal form,[1]; 0 day,Crystal form C
same,Purity (%),[1]; 0 day,99.8%
same,Crystal form,"[1]; 25°C-60%RH, 1 month",Unchanged
same,Purity (%),"[1]; 25°C-60%RH, 1 month",99.8%
same,Crystal form,"[1]; 25°C-60%RH, 3 months",Unchanged
same,Purity (%),"[1]; 25°C-60%RH, 3 months",99.7%
same,Crystal form,"[1]; 25°C-60%RH, 6 months",Unchanged
same,Purity (%),"[1]; 25°C-60%RH, 6 months",99.7%
same,Crystal form,"[1]; 25°C-60%RH, 7 days",Unchanged
same,Purity (%),"[1]; 25°C-60%RH, 7 days",99.8%
same,Crystal form,"[1]; 25°C-60%RH, 14 days",Unchanged
same,Purity (%),"[1]; 25°C-60%RH, 14 days",99.8%
same,physicochemical stability,[1]; 25°C/60%RH and 40°C/75%RH for 6 months,good
same,Crystal form,"[1]; 40°C-75%RH, 1 month",Unchanged
same,Purity (%),"[1]; 40°C-75%RH, 1 month",99.8%
same,Crystal form,"[1]; 40°C-75%RH, 3 months",Unchanged
same,Purity (%),"[1]; 40°C-75%RH, 3 months",99.3%
same,Crystal form,"[1]; 40°C-75%RH, 6 months",Unchanged
same,Purity (%),"[1]; 40°C-75%RH, 6 months",99.3%
same,Crystal form,"[1]; 40°C-75%RH, 7 days",Unchanged
same,Purity (%),"[1]; 40°C-75%RH, 7 days",99.8%
same,Crystal form,"[1]; 40°C-75%RH, 14 days",Unchanged
same,Purity (%),"[1]; 40°C-75%RH, 14 days",99.8%
"O=C(O)[C@@H](Cc1cccc(CN(CCOc2cccc(C[C@H](C(=O)O)[C@H]3CCNC3)c2)Cc2cccc(C[C@H](C(=O)O)[C@H]3CCNC3)c2)c1)[C@H]1CCNC1 [hydrochloride (1:1) amorphous form, (2S)-3-(3-{[(2-{3-[(2S)-2-carboxyl-2-[(3R)-pyrrolidin-3-yl]ethyl]phenoxy}ethyl)({3-[(2S)-2-carboxyl-2-[(3R)-pyrrolidin-3-yl]ethyl]phenyl}methyl)amino]methyl}phenyl)-2-[(3R)-pyrrolidin-3-yl]propionic acid]",Crystal form,[2]; 0 day,Amorphous form
same,Purity (%),[2]; 0 day,98.8%
same,Crystal form,"[2]; 25°C-60%RH, 1 month",Crystal form a
same,Purity (%),"[2]; 25°C-60%RH, 1 month",98.7%
same,Crystal form,"[2]; 25°C-60%RH, 2 months",Crystal form a
same,Purity (%),"[2]; 25°C-60%RH, 2 months",98.6%
same,Crystal form,"[2]; 25°C-60%RH, 3 months",Crystal form a
same,Purity (%),"[2]; 25°C-60%RH, 3 months",98.2%
same,Crystal form,"[2]; 25°C-60%RH, 7 days",Unchanged
same,Purity (%),"[2]; 25°C-60%RH, 7 days",98.8%
same,Crystal form,"[2]; 25°C-60%RH, 14 days",Unchanged
same,Purity (%),"[2]; 25°C-60%RH, 14 days",98.8%
same,physicochemical stability,[2],slightly less stable
same,Crystal form,"[2]; 40°C-75%RH, 1 month",Crystal form a
same,Purity (%),"[2]; 40°C-75%RH, 1 month",97.6%
same,Crystal form,"[2]; 40°C-75%RH, 2 months",Crystal form a
same,Purity (%),"[2]; 40°C-75%RH, 2 months",95.6%
same,Crystal form,"[2]; 40°C-75%RH, 3 months",Crystal form a
same,Purity (%),"[2]; 40°C-75%RH, 3 months",95.3%
same,Crystal form,"[2]; 40°C-75%RH, 7 days",Crystal form a
same,Purity (%),"[2]; 40°C-75%RH, 7 days",98.3%
same,Crystal form,"[2]; 40°C-75%RH, 14 days",Crystal form a
same,Purity (%),"[2]; 40°C-75%RH, 14 days",98.1%
"Cl.Cl.Cl.Cl.O=C(O)[C@@H](Cc1cccc(CN(CCOc2cccc(C[C@H](C(=O)O)[C@H]3CCNC3)c2)Cc2cccc(C[C@H](C(=O)O)[C@H]3CCNC3)c2)c1)[C@H]1CCNC1 [hydrochloride (1:4) amorphous form, (2S)-3-(3-{[(2-{3-[(2S)-2-carboxyl-2-[(3R)-pyrrolidin-3-yl]ethyl]phenoxy}ethyl)({3-[(2S)-2-carboxyl-2-[(3R)-pyrrolidin-3-yl]ethyl]phenyl}methyl)amino]methyl}phenyl)-2-[(3R)-pyrrolidin-3-yl]propionic acid tetrahydrochloride]",Crystal form,[2]; 0 day,Amorphous form
same,Purity (%),[2]; 0 day,99.8%
same,Crystal form,"[2]; 25°C-60%RH, 1 month",Unchanged
same,Purity (%),"[2]; 25°C-60%RH, 1 month",99.8%
same,Crystal form,"[2]; 25°C-60%RH, 2 months",Deliquescent
same,Purity (%),"[2]; 25°C-60%RH, 2 months",99.8%
same,Crystal form,"[2]; 25°C-60%RH, 3 months",Deliquescent
same,Purity (%),"[2]; 25°C-60%RH, 3 months",99.8%
same,Crystal form,"[2]; 25°C-60%RH, 6 months",Deliquescent
same,Purity (%),"[2]; 25°C-60%RH, 6 months",99.8%
same,Crystal form,"[2]; 25°C-60%RH, 7 days",Unchanged
same,Purity (%),"[2]; 25°C-60%RH, 7 days",99.8%
same,Crystal form,"[2]; 25°C-60%RH, 14 days",Unchanged
same,Purity (%),"[2]; 25°C-60%RH, 14 days",99.8%
same,physicochemical stability,[2],slightly less stable
same,Crystal form,"[2]; 40°C-75%RH, 1 month",Deliquescent
same,Purity (%),"[2]; 40°C-75%RH, 1 month",99.8%
same,Crystal form,"[2]; 40°C-75%RH, 2 months",Deliquescent
same,Purity (%),"[2]; 40°C-75%RH, 2 months",99.8%
same,Crystal form,"[2]; 40°C-75%RH, 3 months",Deliquescent
same,Purity (%),"[2]; 40°C-75%RH, 3 months",99.8%
same,Crystal form,"[2]; 40°C-75%RH, 6 months",Deliquescent
same,Purity (%),"[2]; 40°C-75%RH, 6 months",99.8%
same,Crystal form,"[2]; 40°C-75%RH, 7 days",Unchanged
same,Purity (%),"[2]; 40°C-75%RH, 7 days",99.8%
same,Crystal form,"[2]; 40°C-75%RH, 14 days",Unchanged
same,Purity (%),"[2]; 40°C-75%RH, 14 days",99.8%
"O=C(O)[C@@H](Cc1cccc(CN(CCOc2cccc(C[C@H](C(=O)O)[C@H]3CCNC3)c2)Cc2cccc(C[C@H](C(=O)O)[C@H]3CCNC3)c2)c1)[C@H]1CCNC1 [hydrochloride (1:1) crystal form e, (2S)-3-(3-{[(2-{3-[(2S)-2-carboxyl-2-[(3R)-pyrrolidin-3-yl]ethyl]phenoxy}ethyl)({3-[(2S)-2-carboxyl-2-[(3R)-pyrrolidin-3-yl]ethyl]phenyl}methyl)amino]methyl}phenyl)-2-[(3R)-pyrrolidin-3-yl]propionic acid]",Crystal form,[2]; 0 day,Hydrochloride crystal form e
same,Purity (%),[2]; 0 day,99.9%
same,Crystal form,"[2]; 25°C-60%RH, 1 month",Unchanged
same,Purity (%),"[2]; 25°C-60%RH, 1 month",99.9%
same,Crystal form,"[2]; 25°C-60%RH, 3 months",Unchanged
same,Purity (%),"[2]; 25°C-60%RH, 3 months",99.9%
same,Crystal form,"[2]; 25°C-60%RH, 6 months",Unchanged
same,Purity (%),"[2]; 25°C-60%RH, 6 months",99.9%
same,Crystal form,"[2]; 25°C-60%RH, 7 days",Unchanged
same,Purity (%),"[2]; 25°C-60%RH, 7 days",99.9%
same,Crystal form,"[2]; 25°C-60%RH, 14 days",Unchanged
same,Purity (%),"[2]; 25°C-60%RH, 14 days",99.9%
same,physicochemical stability,[2],good
same,Crystal form,"[2]; 40°C-75%RH, 1 month",Unchanged
same,Purity (%),"[2]; 40°C-75%RH, 1 month",99.9%
same,Crystal form,"[2]; 40°C-75%RH, 3 months",Unchanged
same,Purity (%),"[2]; 40°C-75%RH, 3 months",99.9%
same,Crystal form,"[2]; 40°C-75%RH, 6 months",Unchanged
same,Purity (%),"[2]; 40°C-75%RH, 6 months",99.9%
same,Crystal form,"[2]; 40°C-75%RH, 7 days",Unchanged
same,Purity (%),"[2]; 40°C-75%RH, 7 days",99.9%
same,Crystal form,"[2]; 40°C-75%RH, 14 days",Unchanged
same,Purity (%),"[2]; 40°C-75%RH, 14 days",99.9%
same,DVS hygroscopicity weight gain,[3]; listed as hydrochloride crystal form e,18%
"Cl.Cl.Cl.Cl.O=C(O)[C@@H](Cc1cccc(CN(CCOc2cccc(C[C@H](C(=O)O)[C@H]3CCNC3)c2)Cc2cccc(C[C@H](C(=O)O)[C@H]3CCNC3)c2)c1)[C@H]1CCNC1 [Compound A hydrochloride, (2S)-3-(3-{[(2-{3-[(2S)-2-carboxyl-2-[(3R)-pyrrolidin-3-yl]ethyl]phenoxy}ethyl)({3-[(2S)-2-carboxyl-2-[(3R)-pyrrolidin-3-yl]ethyl]phenyl}methyl)amino]methyl}phenyl)-2-[(3R)-pyrrolidin-3-yl]propionic acid tetrahydrochloride]",AUC,[4]; read-out: Area under curve AUC,28600 ng·h/mL
same,half-life,[4]; read-out: Half life T1/2 (converted),18.3 h
same,Cmax,[4]; read-out: Maximum blood concentration Cmax,2470 ng/mL
"O=C(O)[C@@H](Cc1cccc(CN(CCOc2cccc(C[C@H](C(=O)O)[C@H]3CCNC3)c2)Cc2cccc(C[C@H](C(=O)O)[C@H]3CCNC3)c2)c1)[C@H]1CCNC1 [hydrochloride (1:1) crystal form a, (2S)-3-(3-{[(2-{3-[(2S)-2-carboxyl-2-[(3R)-pyrrolidin-3-yl]ethyl]phenoxy}ethyl)({3-[(2S)-2-carboxyl-2-[(3R)-pyrrolidin-3-yl]ethyl]phenyl}methyl)amino]methyl}phenyl)-2-[(3R)-pyrrolidin-3-yl]propionic acid]",Crystal form,[2]; 0 day,Hydrochloride crystal form a
same,Purity (%),[2]; 0 day,99.9%
same,Crystal form,"[2]; 25°C-60%RH, 1 month",Unchanged
same,Purity (%),"[2]; 25°C-60%RH, 1 month",99.9%
same,Crystal form,"[2]; 25°C-60%RH, 3 months",Deliquescent
same,Purity (%),"[2]; 25°C-60%RH, 3 months",99.7%
same,Crystal form,"[2]; 25°C-60%RH, 6 months",Deliquescent
same,Purity (%),"[2]; 25°C-60%RH, 6 months",98.5%
same,Crystal form,"[2]; 25°C-60%RH, 7 days",Unchanged
same,Purity (%),"[2]; 25°C-60%RH, 7 days",99.9%
same,Crystal form,"[2]; 25°C-60%RH, 14 days",Unchanged
same,Purity (%),"[2]; 25°C-60%RH, 14 days",99.9%
same,physicochemical stability,[2],slightly less stable
same,Crystal form,"[2]; 40°C-75%RH, 1 month",Deliquescent
same,Purity (%),"[2]; 40°C-75%RH, 1 month",97.7%
same,Crystal form,"[2]; 40°C-75%RH, 3 months",Deliquescent
same,Purity (%),"[2]; 40°C-75%RH, 3 months",95.2%
same,Crystal form,"[2]; 40°C-75%RH, 6 months",Deliquescent
same,Purity (%),"[2]; 40°C-75%RH, 6 months",94.8%
same,Crystal form,"[2]; 40°C-75%RH, 7 days",Unchanged
same,Purity (%),"[2]; 40°C-75%RH, 7 days",99.8%
same,Crystal form,"[2]; 40°C-75%RH, 14 days",Unchanged
same,Purity (%),"[2]; 40°C-75%RH, 14 days",98.8%
same,DVS hygroscopicity weight gain,[3]; listed as hydrochloride crystal form a,30%
